The results in this text go back to US5965743A, “N-substituted imidazol derivative” (Nippon Soda Co., Ltd., priority 1994, dated 1999).

Assay [1] concerns biosynthesis of cholesterol. The experiment in a line: Inhibitory effect on biosynthesis of cholesterol in cell-free biosystem. The format is biochemical, rat (SD-strain). As to conditions: cell-free rat liver enzyme system, 90 min, 37° C., pH 7.4; read-out: 50% Inhibitory Concentration (IC50), cholesterol biosynthesis. The procedure: Inhibitory Effect on Biosynthesis of Cholesterol in Cell-free Biosystem
(1) Preparation of Enzyme Reaction System
(§1) The preparation of the enzymatic system for the biosynthesis of cholesterol in rats was carried out according to the method described in Biochimica et Biophysica Acta, Vol.486, pp 70-81, 1977.
(§2) More particularly, SD-strain female rats weighing from […] were fed for 7 to 10 days with a diet containing 2% cholestyramine to enhance their biosynthetic activity of cholesterol. After killed the rats by means of depletion of blood in midnight, the livers thereof were removed and homogenized with a double volume of 0.1 M potassium phosphate buffer solution (pH 7.4) containing 15 mM nicotine amide and 2 mM magnesium chloride by using a loose fitting-type teflon homogenizer. The supernatant obtained by centrifuging the homogenate at 12,000×g for 30 min. was further centrifuged at 105,000×g for 90 min., thereby separating it to the microsome fraction and the supernatant fraction. The supernatant obtained were kept as the fraction resulting in the precipitation in 40-80% ammonium sulfate (hereinafter referred to as "soluble fraction"). Each of the soluble fraction and the microsome fraction were independently adjusted with 0.1 M potassium phosphate buffer solution (pH 7.4) to the volumes of 1 ml/g of liver and 1 ml/3 g of liver, respectively, and were kept and used in the subsequent tests as an enzyme solution for the mixing ratio of 16:1.
(2) Method for Measuring Cholesterol Biosynthesis Activity
(§3) Cholesterol biosynthesis activity was measured according to the method described in Biochimica Biophysica Acta, Vol.486, pp 70-81, 1977. 2 μl dimethylsulfoxide solution of the test compound were added to a solution composed of 50 μl of the enzyme solution prepared in (1) described above, 0.1 M potassium phosphate buffer solution (pH 7.4), 1 mM ATP, 5 mM glucose-1-phosphate, 6 mM glutathione, 6 mM magnesium chloride, 0.04 mM coenzyme A, 0.25 mM NAD, 0.25 mM NADP and 1 mM 2-^14 C-sodium acetate (111 MBq./mmol), and the resultant solution was adjusted to the whole volume of 0.2 ml and then allowed to a reaction for 90 min. at 37° C. while shaking. The reaction was then stopped by adding 1 ml of 15% ethanol solution of potassium hydroxide, and the solution was then heated for 1 hour at 75° C. After extracted unsaponificated products with hexane from the solution, the solution was then condensed and dried to the hard state and subsequently dissolved in small volume of a mixture of chloroform and methanol (mixing ratio; 1:2). The resultant chloroform-methanol solution was spotted on a pre-coated silica gel TLC plate, then developed with a developer composed of benzene and ethyl acetate (mixing ratio; 9:1). The cholesterol spot was then taken out from the plate, and the radient activity of the spot was measured by using a liquid scintillation counter. Based on the radio-activity measured, mthe 50% inhibitory concentration (IC50) of the compounds of the present invention were determined.

The test system of a further assay is cholesterol biosynthesis. The assay can be described thus: In vivo inhibition test on cholesterol biosynthesis in mice. As to conditions: n = 5, 30 mg/kg oral; for 14C-Cholesterol in serum: control group 3783 (for 1-71), 5694 (for 2-64, 2-71, 2-72); for Inhibition Rate on cholesterol biosynthesis: vs control group. More on the design: species or system mouse (Crj:ICR-strain). The procedure: In Vivo Inhibition Test on Cholesterol Biosynthesis
For this test, Crj:ICR-strain male mice aged 7-9 weeks were provided. The mice were fed with a diet containing 2% cholestyramine for 7 to 10 days under reversed lighting condition, namely the mice were placed in dark condition during 7:00 AM to 7:00 PM. Each of the test compounds was dissolved or suspended in either distillated water or 1% aqueous solution of poly(oxyethylene) curing castor oil and was orally administrated to the mice at a dose of 30 mg/kg at 10:30 AM, respectively. After 1 hour following to the administration of the test compound, the mice were intraperitoneally administrated with ^14 C-sodium acetate at a dose of 5 μCi/0.5 ml/mouse, respectively. After 2 hours, blood sampling was performed for each mouse from the abdominal aorta under anesthesia with ether and the blood sampled were placed into plastic test tubes being placed with blood separating agent beforehand to separate the serum, respectively. Each 0.5 ml of the serum was then added with 1 ml of 20% ethanol solution of potassium hydroxide and heated for 3 hours at 75° C. After extracting the unsponified substance with n-hexane, the serum was condensed to the dry hard state and dissolved in small amount of a mixed solution of chloroform and methanol (mixing ratio; 1:2). The resultant chloroform-methanol solution was then spotted on pre-coated silica gel TLC and developed with a mixed solution of benzene and ethyl acetate (mixing ratio; 9:1). The cholesterol spot was then taken out and the radio-activity thereof was measured by using a liquid scintillation counter. Based on the radio-activity measured, the inhibition rate on cholesterol biosynthesis were determined respectively for the compounds of the present invention.

In assay [2] the test system is Triton WR-1339-Induced Hyperlipemia Mice. The experiment in a line: Effect on serum lipid in Triton WR-1339-induced hyperlipemia mice. Format: in vivo, mouse (Crj:ICR-strain). As to conditions: Mus musculus, po (3 x 33.3 mg/kg), average of 10 animals, 24 hours. The procedure: For this test, Crj:ICR-strain male mice aged 7-9 weeks were provided. […] After 24 hours, blood sampling was performed for each mouse from the abdominal aorta under anesthesia with ether, and the collected blood were placed into plastic test tubes being placed with a blood separating agent beforehand, then after 30 min. or 1 hour, the blood sampled was centrifuged at 10,000 rpm to obtain the serum. Total cholesterol value, HDL cholesterol value and total triglyceride value in the serum were respectively measured by using the measuring kits and automatic biochemical analyser.

The target of assay [3] is T1, squalene-2,3-oxide cyclase (Rattus norvegicus, UniProt P48450).
T1 sequence (P48450 2-733): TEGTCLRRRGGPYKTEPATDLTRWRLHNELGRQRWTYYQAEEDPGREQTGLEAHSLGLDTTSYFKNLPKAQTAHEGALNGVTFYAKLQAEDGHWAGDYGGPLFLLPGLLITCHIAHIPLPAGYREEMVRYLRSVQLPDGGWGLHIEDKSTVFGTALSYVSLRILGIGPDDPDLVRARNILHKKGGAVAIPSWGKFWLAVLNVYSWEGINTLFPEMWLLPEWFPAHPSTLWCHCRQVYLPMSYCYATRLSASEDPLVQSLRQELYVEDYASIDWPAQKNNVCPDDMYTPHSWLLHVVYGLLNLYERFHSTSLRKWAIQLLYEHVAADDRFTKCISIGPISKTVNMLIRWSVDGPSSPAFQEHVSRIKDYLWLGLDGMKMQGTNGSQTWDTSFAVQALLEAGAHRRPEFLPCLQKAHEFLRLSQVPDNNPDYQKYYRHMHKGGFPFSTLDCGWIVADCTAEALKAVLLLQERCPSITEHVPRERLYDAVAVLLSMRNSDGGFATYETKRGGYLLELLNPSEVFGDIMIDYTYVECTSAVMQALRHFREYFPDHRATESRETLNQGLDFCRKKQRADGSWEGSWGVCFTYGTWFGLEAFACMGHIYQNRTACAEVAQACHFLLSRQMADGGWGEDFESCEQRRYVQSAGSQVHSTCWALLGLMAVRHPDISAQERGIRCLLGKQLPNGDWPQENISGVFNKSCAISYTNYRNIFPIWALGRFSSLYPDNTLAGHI
The experiment in a line: Sterol amount synthesized in cell-free cholesterol biosynthesis system (squalene-2,3-epoxide accumulation). As to conditions: average of 6 results. The format is biochemical, rat (SD-strain). As to the method:
as §1, §2, §3
On the other hand, after determining the position of ^14 C-squalene-2,3-epoxide on the TLC, which was produced due to the action of AMO 1618 (Calbiochem, USA), a squalene-2,3-oxidecyclase inhibitor, the spot containing squalene-2,3-epoxide […] was taken out and the radio-activity thereof was then determined by using a liquid scintillation counter.

Where [4] appears, read: read-out: % Change of Serum Lipid to Control Group: HDL Cholesterole.
Setting [5] is: read-out: % Change of Serum Lipid to Control Group: Total Cholesterole.
[6] abbreviates: read-out: % Change of Serum Lipid to Control Group: Total glyceride.

Like-named read-outs stand apart in the source and are kept apart here.

Take `O=S(=O)(CCCOc1ccc(-n2ccnc2)cc1)c1ccccc1` [Compound 1-71]: the IC50 in assay [1] came to 2.4 µM. In the assay on cholesterol biosynthesis, this compound gave a 14C-Cholesterol in serum of 575 dpm/1 ml Serum. The “Inhibition Rate on cholesterol biosynthesis” value (“Inhibition Rate” for short) in the assay with cholesterol biosynthesis came to 85%. Also, the change in vivo at 100 mg/kg in assay [2] (setting [4]) is 82%; in assay [2] (setting [5]), -23%; in assay [2] (setting [6]) it was -20%.
`c1ccc(OCCCOc2ccc(Cn3ccnc3)cc2)cc1` [Compound 2-72]: in assay [1], the IC50 is 6 µM. For the same compound, the 14C-Cholesterol in serum in the assay with cholesterol biosynthesis turned out to be 3980 dpm/1 ml Serum. For the same compound, in the assay with cholesterol biosynthesis, the “Inhibition Rate” value is recorded as 30%. In addition, the change in vivo at 100 mg/kg was 28% in assay [2] (setting [4]), -21% in assay [2] (setting [5]) and -29% in assay [2] (setting [6]).
`O=S(=O)(CCCOc1ccc(Cn2ccnc2)cc1)c1ccccc1` [Compound 2-71] gave a 14C-Cholesterol in serum in the assay with cholesterol biosynthesis of 73 dpm/1 ml Serum. Also, in the assay on cholesterol biosynthesis, the “Inhibition Rate” value stood at 99%. Also, the change in vivo at 100 mg/kg in assay [2] (setting [4]) was 60%; in assay [2] (setting [5]), -30%; in assay [2] (setting [6]), -21%.
Regarding `c1ccc(CCCNc2ccc(-n3ccnc3)cc2)cc1` [Compound 1-17], in assay [1], the IC50 was 1.5 µM. Further, the “Sterol Amount Synthesized: Squalene-2,3-epoxide” value came out at 3238 dpm/90min/Assay in assay [3] (1 μM, control 2125 (Test 1, 1-17), 953 (Test 2, 2-47)); 2102 dpm/90min/Assay in assay [3] (3 μM, control 2125 (Test 1, 1-17), 953 (Test 2, 2-47)); 7382 dpm/90min/Assay in assay [3] (10 μM, control 2125 (Test 1, 1-17), 953 (Test 2, 2-47)); 10914 dpm/90min/Assay in assay [3] (30 μM, control 2125 (Test 1, 1-17), 953 (Test 2, 2-47)); 12736 dpm/90min/Assay in assay [3] (100 μM, control 2125 (Test 1)). Further, the “Sterol Amount Synthesized: Cholesterol” value in assay [3] (1 μM, control 15448 (Test 1, 1-17), 9453 (Test 2, 2-47)) amounted to 15297 dpm/90min/Assay; in assay [3] (3 μM, control 15448 (Test 1, 1-17), 9453 (Test 2, 2-47)), 8938 dpm/90min/Assay; in assay [3] (10 μM, control 15448 (Test 1, 1-17), 9453 (Test 2, 2-47)), 6364 dpm/90min/Assay; in assay [3] (30 μM, control 15448 (Test 1, 1-17), 9453 (Test 2, 2-47)), 3558 dpm/90min/Assay; in assay [3] (100 μM, control 15448 (Test 1)) it was 1830 dpm/90min/Assay. Further, the “Sterol Amount Synthesized: Total Amount Synthesized” value stood at 72069 dpm/90min/Assay in assay [3] (1 μM, control 85102 (Test 1, 1-17), 53622 (Test 2, 2-47)); 82446 dpm/90min/Assay in assay [3] (3 μM, control 85102 (Test 1, 1-17), 53622 (Test 2, 2-47)); 79733 dpm/90min/Assay in assay [3] (10 μM, control 85102 (Test 1, 1-17), 53622 (Test 2, 2-47)); 95990 dpm/90min/Assay in assay [3] (30 μM, control 85102 (Test 1, 1-17), 53622 (Test 2, 2-47)); 77489 dpm/90min/Assay in assay [3] (100 μM, control 85102 (Test 1)). Further, the results for the change in vivo at 100 mg/kg in assay [2] (setting [4]), in assay [2] (setting [5]) and in assay [2] (setting [6]) were 78%, -29% and -46%, respectively.
As to `c1ccc(SCCCOc2ccc(Cn3ccnc3)cc2)cc1` [Compound 2-64, 1-[4-(3-phenylthiopropyloxy)benzyl]imidazole], in assay [1], the IC50 was found to be 6 µM. In the assay with cholesterol biosynthesis, the 14C-Cholesterol in serum was found to be 460 dpm/1 ml Serum and the “Inhibition Rate” value came to 92%.
